Legend:
[1] = tested on: IDH mutant tumors; assay: Flow cytometry of tumor-infiltrating lymphocytes (TILs); format: in vivo; settings: IDH mutant tumor-bearing mice, vs DMSO-treated controls
Description: Flow cytometry for TILs. IDH WT and mutant tumors were dissociated to form a single cell suspension (SCS). The SCS was then overlaid onto sucrose gradient (Lympholyte-M) and centrifuged at 2400 rpm for 20 minutes. Immune cells at the interphase of the 2 liquids were collected and washed once with PBS. The cells were then stained with appropriate antibodies and acquired on a BD LSR Fortessa flow cytometer. Briefly, cells were washed with PBS and stained with 1 μg antibody for 30 minutes at 4° C. After incubation, the cells were washed three times with FACS buffer (PBS+10% FBS+0.1% Na-azide), resuspended in a final volume of 200 μl of FACS buffer and run through the flow cytometer. Flow cytometry data was analyzed on the Flowjo® v9.1 software. Antibodies used for flow cytometry were as follows: CD45- PE-Cy7, NKp46-FITC, CD11b-APC-Cy7, Gr-1-APC, F4/80-eFluor450, Ly6-c-PerCP-Cy5.5 and CD11c-PE.
ATRA promotes tumor stasis in IDH mutant tumor-bearing mice. To determine the value of ATRA as a therapeutic modality, its anti-tumor efficacy in vivo was evaluated. Athymic nude mice were implanted with 10^6 IDH mutant or WT primary glioma cells in the flank. 21 days after tumor inoculation (when tumors were about 25 mm^2), 10 mg/kg ATRA was administered every other day for 21 days. Tumors were measured every 3 days. […] Resected tumors from ATRA or DMSO-treated mice were digested to obtain single cell suspensions and assessed for killing by human and mouse NK cells ex vivo.

[2] = tested on: IDH mutant gliomas; assay: Survival in RCAS tva immunocompetent glioma mouse model; format: in vivo, mice
Description: Immunocompetent mouse model. The RCAS/tva system was used to ectopically express muIDH1 (R132H) in PDGF-driven gliomas. RCAS retroviral vectors were used to transfer genes to specific cell types in vivo that express the receptor tva to develop a pair of isogenic mouse tumor models that differ only in IDH1 mutation status. Three RCAS vectors expressing PDGF, wtIDH1-shp53, or muIDH1 (R132H)-shp53 were constructed and used in three different Ntva mouse strains. Mice were injected with RCAS-PDGF-producing DF1 cells together with either DF1 cells producing RCAS-wtIDH1-shp53 (wtIDH1) or RCAS-mutantIDH1-shp53 (muIDH1). Tumors were generated from these injections with identical genomic backgrounds, with the initiating events differing only in IDH1 mutation status.

[3] = tested on: IDH mutant primary glioma neurospheres; assay: Differentiation of primary glioma neurospheres; format: cell-based, human; settings: for morphological changes: 1 μM ATRA
Description: Glioma cell culture. Resected tumors from Glioma patients (both IDH wt and mutant) were mechanically dissociated to form a single cell suspension. Contaminating RBCs were removed using an RBC lysis buffer (eBioscience) and cells were propagated into neural stem cells in Neurocult™ NS-A proliferation kit supplemented with 20 ng/mL Human Recombinant EGF, 10 ng/mL Human Recombinant bFGF) and 2 μg/mL Heparin Solution (Stemcell Technologies Canada Inc.). After 3 weeks in culture, neurospheres were moved to Complete Medium (CM) in order to propagate differentiation into adherent cell lines.
All-trans retinoic acid (ATRA) is a differentiating agent for multiple types of cancers, including IDH mutant acute myeloid leukemia (AML). Therefore, efficacy of ATRA as a differentiating agent in IDH mutant gliomas was evaluated. IDH mutant or WT primary glioma neurospheres were treated with 1 μM ATRA for 2, 7 or 14 days. At each time point, cells were evaluated for morphological changes and changes in their molecular profile. Vehicle (DMSO)-treated cells served as controls, while cells treated with 10% FBS served as differentiation (positive) controls.

[4] = tested on: IDH mutant chondrosarcoma cells (HT-1080 and SW 1353); assay: NK killing of chondrosarcoma cells; format: cell-based; settings: different doses of ATRA, 48 hours; at least two chondrosarcoma cell lines
Description: IDH WT chondrosarcoma cells and IDH mutant chondrosarcoma cells were treated with different doses of ATRA or DMSO for 48 hours and were evaluated for killing by NK cells (FIG. 11F). NK cytotoxicity on IDH WT chondrosarcoma cells and IDH mutant chondrosarcoma cells was evaluated.

[5] = tested on: IDH mutant primary glioma cells; assay: Tumor growth in athymic nude mice with flank glioma tumors; format: in vivo
Description: Mice. 6-8 week old Balb/c nude mice (CAnN.Cg-Foxn1nu/Crl) were purchased from Charles River Laboratories. Mice were injected with 10^6 IDH WT or mutant primary glioma cells sub-cutaneously in the right flank. When the tumors were about 25 mm^2, ATRA treatment was started. 10 mg/Kg ATRA was administered to mice intra-peritoneally (i.p.) every alternate day until termination of the experiment. DMSO-treated mice were used as controls. The mice were monitored for signs of drug toxicity such as weight-loss, lethargy, skin lesions and diarrhea. The tumors were measured every 3 days, and the mice were sacrificed when the tumors were about 400 mm^2. For NK depletion experiments, 6-week old B6 nude mice (B6.Cg-Foxn1nu/J) were purchased from The Jackson Laboratory. NK depletion was performed by injecting mice with 200 μg of anti-NK1.1 antibody (Biolegend) i.p. on the day ATRA treatment was started. Mice injected with 200 μg of an isotype antibody were used as controls. Mice were bled and evaluated for circulating NKs by flow cytometry.
ATRA promotes tumor stasis in IDH mutant tumor-bearing mice. To determine the value of ATRA as a therapeutic modality, its anti-tumor efficacy in vivo was evaluated. […] Tumors were measured every 3 days. […] Resected tumors from ATRA or DMSO-treated mice were digested to obtain single cell suspensions and assessed for killing by human and mouse NK cells ex vivo.

[6] = tested on: IDH mutant cells from primary gliomas; assay: Gene microarray (Clariom S) and pathway analysis; format: cell-based, human
Description: To evaluate overall gene expression changes and to decipher pathway activation in IDH mutants after ATRA treatment, a gene microarray was performed. IDH wt and mutant cells from primary gliomas were treated with 1 μM ATRA for 48 hours and RNA was extracted from the cells. Microarray analysis was performed using Clariom S microarray chips.

For `CC1=C(/C=C/C(C)=C/C=C/C(C)=C/C(=O)O)C(C)(C)CCC1` [ATRA, all-trans retinoic acid], the “MDSCs and monocytes in TILs” value [1] was “lower MDSCs and monocytes”, the “NKs in TILs” value [1] was “higher number” and the “infiltration of immune cells overall (TILs)” value [1] was “higher infiltration of immune cells overall”. The “macrophages in TILs” value [1] was “higher number of macrophages”, the “infiltration of NK cells in the tumor (immunohistochemistry)” value ([2]; ATRA-treated mice) was “increased infiltration of NK cells in the tumor” and the survival ([2]; mice bearing IDH mutant tumors, ATRA every alternate day for 21 days, vs vehicle-treated/IDH wild type) was “significantly longer survival”. For the same compound, the morphological changes ([3]; 14 days) was “induced morphological changes in IDH mutant primary glioma neurospheres, but not WT neurospeheres”, the morphological changes ([3]; earlier time points) was “Minimal morphological changes” and the “time of ATRA treatment after which differentiation occurred” value ([3]; IDH mutant glioma stem cells) was greater than 10 days. The “levels of stem cell markers Sox2, CD133 and Nestin” value ([3]; IDH mutant neurospheres, ATRA 14 days, PCR (Nestin also flow cytometry)) was “significantly lower levels”, the “levels of GFAP, astrocytic differentiation marker” value ([3]; IDH mutant neurospheres, ATRA 14 days, PCR and flow cytometry) was “increased levels of GFAP” and the NK-mediated cell killing [4] was “increased NK-mediated cell killing of IDH mutant chondrosarcoma cells”. For the same compound, the tumor growth ([5]; 10 mg/kg every other day for 21 days, vs DMSO (vehicle)-treated mice and mice with WT tumors) was “significantly slower tumor growth”, the “ex vivo expression of ULBP1 and ULBP3 in tumors” value ([5]; ATRA-treated IDH mutant tumors (data not shown)) was “increased ex vivo expression of ULBP1 and ULBP3” and the “gene expression of inflammatory chemokines CXCL1, CXCL9 and CXCL10” value ([6]; 1 μM ATRA 48 hours (data not shown)) was “upregulated the gene expression of multiple inflammatory chemokines”. For the same compound, the “pathway analysis of upregulated genes” value ([6]; IDH mutant cells, 1 μM ATRA 48 hours) was “immune cell chemotaxis was one of the most upregulated pathways”.
